Assay results reported in patent US20070135365A1, “Pharmaceutical composition for preventing or remedying cardiac hypertrophy and cardiovascular disease caused thereby” (priority 2003, published 2007).

Key:
[1] = tested on: neonatal rat cardiomyocytes (NRC); test: Immunofluorescence of α-actinin: sarcomere structures (cardiac hypertrophy state) in drug-treated NRC; assay type: cell-based
Procedure: (§1) NRC prepared by a method similar to the method as described in (1) of Experiment 1 was moved to a glass culture plate (35 mm diameter) coated with poly-L-lysine, and was cultured over night (5% CO2 concentration, 37° C.) in DMEM without blood serum (manufactured by Nacalai Tesque). TPA was added to this to make a final concentration of 20 nM, and this was cultured a further 18 hours (5% CO2 concentration, 37° C.) (approximately 1×10^3 cells). After culturing, the cells obtained were rinsed 2 times with PBS, fixed by treating with 4 w/v % paraformaldehide for 30 minutes at room temperature, treated by soaking in PBS containing 0.25 v/v % Triton X-100 for 30 minutes at 4° C., and then incubated in blocking buffer solution (PBS containing 3 w/v % BSA, 2 v/v % FBS, 1 v/v % normal goat blood serum, and 0.03 v/v % Triton X-100).
(§2) This was rinsed 2 times in PBS, moved into PBS containing 0.3 v/v % Cy3-labeled anti-mouse IgG antibody, and 0.3 v/v % Cy2-labeled anti-rabbit IgG antibody (second antibody) (both manufactured by Amersham Pharmacia), and incubated for 1 hour at room temperature. The fluorescent signals of the cells were observed by a confocal laser scanning microscope LSM5 Pascal (manufactured by Carl Zeiss Inc.). Untreated NRC (None), which was not treated with TPA, was labeled with antibodies in the same manner as a contrast, and the results of observing the cell luminescence signals by confocal laser microscope (LSM5 Pascal) are indicated in FIG. 3B.
(§3) Specifically, NRC prepared by the same method as described above in (1) of Experiment 1 was moved to a glass culture plate (35 mm diameter) coated with poly-L-lysin, and was cultured over night (5% CO2 concentration, 37° C.) in DMEM without blood serum (manufactured by Nacalai Tesque). Five samples of the culture cells in question were used and added respectively to (1) 100 μM (final concentration, same hereinafter) NE (containing 2 μM propranol), (2) 100 μM AngII, (3) 20 nM LIF, (4) 100 μM NE (containing 2 μM propranol)+400 nM GF109203X (concretely, treated for 30 minutes by adding GF109203X, and then NE was added), (5) 20 nM LIF+400 nM GF109203X (concretely, treated for 30 minutes by adding GF109203X, and then LIF was added), and these were cultured a further 38 hours (5% CO2 concentration, 37° C.) (approximately 1×10^3 cells).
(§4) After culturing, the cells were rinsed 2 times with PBS, fixed by treating with 4 w/v % paraformaldehide for 30 minutes at room temperature, treated by soaking in PBS containing 0.25 v/v % Triton X-100 for 30 minutes at 4° C., and then incubated in blocking buffer solution (PBS containing 3 w/v % BSA, 2 v/v % FBS, 1 v/v % normal goat blood serum, and 0.03 v/v % Triton X-100). […] This was rinsed 2 times in PBS, moved into PBS containing 0.3 v/v % Cy3-labeled anti-mouse IgG antibody, and 0.3 v/v % Cy2-labeled anti-rabbit IgG antibody (second antibody) (both manufactured by Amersham Pharmacia), and incubated for 1 hour at room temperature. The fluorescent signals of the cells were observed by a confocal laser scanning microscope LSM5 Pascal (manufactured by Carl Zeiss Ltd.).

[2] = tested on: fully active PKD1 (phosphorylated PKD1); test: Immunofluorescence: intracellular distribution of fully active PKD1 in drug-treated NRC; assay type: cell-based, rat; conditions: for full activation (phosphorylation) of PKD1 and movement to sarcomere Z-discs: 100 μM NE (containing 2 μM propranol), 100 μM AngII or 20 nM LIF
Procedure: as §1, §2, §3, §4

PKD1 [3] = test: Immunoprecipitation kinase assay with Syntide-2 on PKD1 from drug-treated NRC; assay type: cell-based, rat; conditions: for phosphorylation activity of PKD1 (Syntide-2) relative to untreated NRC: NRC treated 20 minutes, 100 nM TPA, 100 μM NE (containing 2 μM propranol) or 20 nM LIF, n=9
Procedure: The ability of PKD1 to phosphorylate Syntide-2 (APLARTLSVAGLPGKK), which is a selective substance for PKD1, can be used as an index to assess PKD1 activity (Valverde, A. M., et al., Proc. Natl. Acad. Sci. USA, 91, 1994, p. 8572-8576).
Concretely, immunoprecipitation kinase assays using Syntide-2 as a substrate were conducted on the following NRC samples: NRC samples with cardiac hypertrophy induced by treating for 20 minutes respectively with (1) 100 nM TPA, (2) 100 μM NE, and (3) 20 nM LIF, and NRC samples treated for 20 minutes respectively with (4) 400 nM GF109203X (PKC inhibitor), (5) 20 nM TPA+400 nM GF109203X, (6) 100 μM NE+400 nM GF109203X, and (7) 20 nM LIF+400 nM GF109203X. The phosphorylation activity of PKD1 present in the various NRC samples was measured. In addition, as a control, the phosphorylation activity of PKD1 present in NRC that was not treated with anything (untreated NRC) was described and measured in the same way.
NRC prepared by the same method as described in (1) of Experiment 1 was cultured over night (5% CO2 concentration, 37° C.) in DMEM without blood serum (manufactured by Nacalai Tesque). To the cultured cells, (1) 100 nM TPA, (2) 100 μM NE (containing 2 μM propranol), (3) 20 nM LIF, (4) 400 nM GF109203X (PKC inhibitor), (5) 20 nM TPA+400 nM GF109203X, (6) 100 μM NE+400 nM GF109203X, and (7) 20 nM LIF+400 nM GF109203X were added respectively, and treated for 20 minutes. The cells obtained were treated with Lysis buffer solution A, and incubated for 60 minutes on ice together with anti-fully active PKD1 polyclonal antibody. This was treated with protein G Sepharose 4B, and protein bound to the resin (Protein G Sepharose 4B bound PKD1-anti-PKD1 antibody complex) was recovered. The PKD1 immunoprecipitate was rinsed 1 time in Lysis buffer solution A, and further rinsed 2 times with Lysis buffer solution A not containing NaF.
The PKD1 was eluted from PKD1 immunoprecipitate obtained by incubating in Lysis buffer solution A not containing NaF together with 100 μL of 0.5 mg/mL immunizing peptide. The immunizing peptide is an antigen peptide used in order to immunize test animals to create anti-fully active PKD1 polyconal antibody. When incubating this peptide with protein G Sepharose 4B bound PKD1-anti-PKD1 antibody complex, the aforementioned antigen peptide and the anti-PKD1 antibody bond, and as a result, PKD1 can be freed and obtained.
The eluted PKD1 (10 μL) was incubated for 5 minutes at 30° C. together with assay mixed solution (15 μL Tris/MgCl2 (100 mM Tris, 100 mM MgCl2), 5 μL ATP (800 μM), 0.2 μL ^32γ-ATP, and 40 μg Syntide-2). Next, the PKD1 phosphorylation activity was measured by liquid scintillation counter (n=9).

PKCε and PKD1 = test: Immunoprecipitation assay and Western blotting for interaction of PKCε and PKD1 in NE-treated NRC; assay type: cell-based, rat; conditions: 100 μM NE (containing 2 μM propranol), versus NRC not treated with NE
Procedure: Primary NRC in culture prepared according to the method described in Experiment 1 (1) was treated with 100 μM NE (containing 2 μM propranol) in the same manner as in Experiment 3; the NE treated NRC in question was treated with Lysis buffer solution A; and 1 mL of cell extract (cell lysate) was obtained. […] of the cell extract was incubated for 60 minutes on ice together with anti-PKD1/2 monoclonal antibody; and this was then treated with protein G Sepharose 4B, and protein bound to the resin in question (anti-PKD1 antibody immunoprecipitate sample) was recovered. As indicated in experiment 1, no PKD2 was present in the NRC. Using anti-PKDε monoclonal antibody made in the same manner, anti-PKDε antibody immunoprecipitate sample was collected. As a control, 1 mL cell extract (cell lysate) of untreated NRC was obtained in the same way, and anti-PKDε antibody immunoprecipitate sample and anti-PKD1 antibody immunoprecipitate sample were prepared.
Next, Western blotting was conducted on the anti-PKCε antibody immunoprecipitate samples and the cell extract (cell lysate) obtained for the various NRC by using anti-PKD1/2 monoclonal antibody as the first antibody, and anti-mouse or anti-rabbit IgG bound with horseradish derived peroxidase (manufactured by Amersham Pharmacia) as the second antibody. […]

[4] = tested on: fully active PKD1 (phosphorylated PKD1); test: Immunofluorescence: intracellular distribution of fully active PKD1 in drug-treated NRC; assay type: cell-based, rat; conditions: cardiomyocytes in which EGF was allowed to act
PKD1 [5] = test: Western blotting of cytoplasm and cell membrane fractions of TPA-treated NRC; assay type: cell-based, rat; conditions: 100 nM TPA, 20 minutes, versus untreated
Procedure: The NRC prepared above was moved to non-serum DMEM (manufactured by Nacalai Tesque), and cultured overnight (5% CO2 concentration, 37° C.). Then, TPA was added to the culture to make a final concentration of 100 nM, and incubated for 20 minutes. Next, the cardiomyocytes were recovered and rinsed in PBS, subjected to bacteriolysis by treating with Lysis buffer solution (having the same composition as Lysis buffer solution A except that the Triton X-100 was 0.1%), centrifuged (15000 rpm, approximately 10 minutes), and fractioned into supernatant (cytoplasm fraction) and precipitate. The precipitate was further dissolved in Lysis buffer solution A. This was lightly separated by centrifuge, and the supernatant obtained was taken as the cell membrane fraction. As a control, NRC that was not treated with TPA was subjected to bacteriolysis, and the cytoplasm and cell membrane fractions were separated in the same manner as above (untreated substance). […]
Next, anti-mouse or anti-rabbit IgG bound with horseradish derived peroxidase (manufactured by Amersham Pharmacia) was used as the second antibody reagent, so that it is possible to observe the blotting results with chemical luminescence on X-ray film.

[6] = 38 hours, 100 μM NE (containing 2 μM propranol), 100 μM AngII or 20 nM LIF
[7] = 400 nM GF109203X for 30 minutes, then 100 μM NE (containing 2 μM propranol), 38 hours

NC[C@H](O)c1ccc(O)c(O)c1 [NE, Norepinephrine]
induction of cardiac hypertrophy (formation of sarcomere structures, visualization of Z-discs) [1, 6]: induced cardiac hypertrophy
full activation (phosphorylation) of PKD1 and movement to sarcomere Z-discs ([2]; 38 hours): PKD1 was fully activated (phosphorylated)
phosphorylation activity of PKD1 (Syntide-2) relative to untreated NRC (PKD1 [3]): notably higher phosphorylation activity
formation of complex of PKCε and PKD1 (PKCε and PKD1): complex of PKCε and PKD1 were formed

CN(C)CCCn1cc(C2=C(c3c[nH]c4ccccc34)C(=O)NC2=O)c2ccccc21 [GF109203X]
effect on LIF-induced cardiac hypertrophy ([1]; 400 nM GF109203X for 30 minutes, then 20 nM LIF, 38 hours): a cardiac hypertrophy state was revealed
effect on NE-induced cardiac hypertrophy [1, 7]: no cardiac hypertrophy is generated
effect on NE-induced full activation of PKD1 and movement to sarcomere Z-discs [2, 7]: no fully activated PKD1 (phosphorylation) and no movement to sarcomere Z-discs were observed
intrinsic PKD1 activity with TPA plus PKC inhibitor (PKD1 [3]; NRC, 20 minutes, 20 nM TPA+400 nM GF109203X): suppressed to the same level as that of the negative control
intrinsic PKD1 activity with NE plus PKC inhibitor (PKD1 [3]; NRC, 20 minutes, 100 μM NE+400 nM GF109203X): suppressed to the same level as that of the negative control

Epidermal growth factor [EGF]
full activation of PKD1 and movement to sarcomere Z-discs [4]: also observed

CCCCCCCCCCCCCC(=O)O[C@@H]1[C@@H](C)[C@@]2(O)[C@@H](C=C(CO)C[C@]3(O)C(=O)C(C)=C[C@@H]23)[C@H]2C(C)(C)[C@]12OC(C)=O [TPA, 12-0-tetradecanoylphorbol 13-acetate]
fully active PKD1 (phosphorylated PKD1) in cytoplasm and membrane fractions (PKD1 [5]): present in large amounts in the membrane fraction
induction of cardiac hypertrophy (formation of sarcomere structures, visualization of Z-discs) ([1]; 20 nM TPA, 18 hours): cardiac hypertrophy was induced
activation of PKD1 and localization of fully active PKD1 ([2]; 20 nM TPA, 18 hours): the fully activated PKD1 moves to the sarcomere Z-disc region
phosphorylation activity of PKD1 (Syntide-2) relative to untreated NRC (PKD1 [3]): notably higher phosphorylation activity

Leukemia inhibitory factor [LIF]
induction of cardiac hypertrophy (formation of sarcomere structures, visualization of Z-discs) [1, 6]: inducing cardiac hypertrophy
full activation (phosphorylation) of PKD1 and movement to sarcomere Z-discs ([2]; 38 hours): no full activation (phosphorylation) of PKD1 and no movement of PKD1 to the vicinity of the sarcomere Z-discs
phosphorylation activity of PKD1 (Syntide-2) relative to untreated NRC (PKD1 [3]): hardly different from that of untreated NRC

Angiotensin II (DRVYIHPF; Angiotensin-2; UniProt P01019 25-32, looked up) [AngII, cardiac hypertrophy inducer]
induction of cardiac hypertrophy (formation of sarcomere structures, visualization of Z-discs) [1, 6]: induced cardiac hypertrophy
full activation (phosphorylation) of PKD1 and movement to sarcomere Z-discs ([2]; 38 hours): PKD1 was fully activated (phosphorylated)
